Source: patent publication US20140294994A1, “PHARMACEUTICAL COMPOSITION FOR ELIMINATION OF CANCER STEM CELLS” (priority 2011, published 2014)
“Also recorded” adds a separate entry of the source. Each block holds one compound with its values, some of them ahead of it.

Experiments:
A549 cells [1] = assay: MTT assay (cell viability); format: cell-based, human
Excerpt: (§1) In addition to the commonly used cell lines (A549 and H1975), we also established several cell lines including CL83, CL141, CL152, CL25, and CL97 cell lines which were isolated from the pleural effusion of NSCLC patients at the National Taiwan University Hospital. The investigation was approved by the Institutional Review Board of the National Taiwan University Hospital. Informed consent was obtained before pleural effusion was collected.

A549 cells [2] = assay: Clonogenic assay; format: cell-based, human
Protocol: The NSCLC cancer cell lines, A549, H1975, CL25, CL83, CL97, CL141, and CL152 were maintained in RPMI medium. Tested cells were seeded respectively in 6 well plates with 10^4 cells per well for 14 days. Each well contained 10 ml RPMI medium as cultured condition for NSCLC cells. […] Trifluoperazine and other tested drugs were added 24 hours after seeding of the cells. The medium and trifluoperazine were changed once on day 4. After the treatments, cells were washed with PBS, and the colonies were fixed with fix solution (acetic acid:methanol=1:3) and stained with 0.5% crystal violet in methanol. After removing the crystal violet carefully and rinse with tap water, the colonies were counted manually.

CL141 cells [3] = assay: Side population analysis (Hoechst 33342, flow cytometry); format: cell-based, human
Protocol: (§2) Single-cell suspensions of cells were detached from dishes with Trypsin-EDTA (Invitrogen) and suspended at 1×10^6 cells/mL in Hank's balanced salt solution (HBSS) supplemented with 3% fetal calf serum and 10 mM Hepes. […] After 90 minutes incubation, the cells were centrifuged immediately for 5 minutes at 300 g and 4° C. and resuspended in ice-cold HBSS. The cells were kept on ice to inhibit efflux of the Hoechst dye, and 1 μg/mL propidium iodide (BD) was added to discriminate dead cells. Finally, these cells were filtered through a 40 μm cell strainer (BD) to obtain single-suspension cells. Cell dual-wavelength analysis and purification were performed on a dual-laser FACS Vantage SE (BD). […] A 610 nm dichroic mirror short-pass (DMSP) was used to separate the emission wavelengths. PI-positive (dead) cells were excluded from the analysis.

CL141 cells [4] = assay: MTT assay (cell viability); format: cell-based; details: Homo sapiens; CL141 cell line, 48 hour incubation; read-out: IC50 for trifluoperazine
Excerpt: as §1

CL152 cells [5] = assay: MTT assay (cell viability); format: cell-based; details: Homo sapiens; CL152 cell line, 48 hour incubation; read-out: IC50 for trifluoperazine
Excerpt: as §1

CL25 cells = assay: MTT assay (cell viability); format: cell-based; details: Homo sapiens; CL25 cell line, 48 hour incubation; read-out: IC50 for trifluoperazine
Excerpt: as §1

CL83 cells [6] = assay: MTT assay (cell viability); format: cell-based; details: Homo sapiens; CL83 cell line, 48 hour incubation; read-out: IC50 for trifluoperazine
Excerpt: as §1

CL97 cells [7] = assay: MTT assay (cell viability); format: cell-based; details: Homo sapiens; CL97 cell line, 48 hour incubation; read-out: IC50 for trifluoperazine
Excerpt: as §1

H1975 cells = assay: MTT assay (cell viability); format: cell-based; details: Homo sapiens, NCI-H1975; H1975 cell line, 48 hour incubation; read-out: IC50 for trifluoperazine
Excerpt: as §1

CL83 cells [8] = assay: Side population analysis (Hoechst 33342, flow cytometry); format: cell-based, human; details: 5 μM, untreated 1.54%
Protocol: as §2

CL97 cells [9] = assay: as above; format: cell-based, human; details: 5 μM, untreated 1.9%
Protocol: as §2

CL141 cells [10] = assay: Aldefluor assay (ALDH-positive cells); format: cell-based, human
Protocol: (§3) High aldehyde dehydrogenase (ALDH) enzyme activity was used to detect lung CSC populations in this study. The Aldefluor assay was performed according to the manufacturer's guidelines (StemCell Technologies). Briefly, single cells obtained from cell cultures were incubated in an Aldefluor assay buffer containing an ALDH substrate (bodipy-aminoacetaldehyde, BAAA) for 50 minutes at 37° C. As a negative control, a fraction of cells from each sample was incubated under identical conditions in the presence of an ALDH inhibitor (diethylaminobenzaldehyde, DEAB). Flow cytometry was used to measure the ALDH-positive cell population.

CL152 cells [11] = assay: Aldefluor assay (ALDH-positive cells); format: cell-based, human; details: 5 μM, untreated 3.73%
Protocol: as §3

CL141 spheroids [12] = assay: Soft agar assay (colony formation); format: cell-based, human; details: 12 days, control 92
Protocol: Freshly sorted CL141 side population (SP) and non-side population (NSP) cells were counted and plated in triplicate at 200 cells per well in six-well plates coated with 1% agarose. Anchorage-independent growth was assessed after incubation for 10-14 days in culture media with or without trifluoperazine (0, 5 and 10 μM), which was replaced every 4 days. Plates were stained with 0.005% crystal violet, and the colonies were counted manually under a microscope and photographed.

CL141 cells [13] = assay: Annexin V/PI staining apoptosis analysis; format: cell-based, human; details: 48 hours, versus control cells
Protocol: […]. Annexin V/PI staining was performed after treatment with different dosages of trifluoperazine. Both early and late apoptotic cells were counted.

CL97 spheroids [14] = assay: Western blotting analysis of cancer spheroids; format: cell-based, human
Protocol: (§4) Cells were lysed in lysis buffer (50 mM Tris-HCl, pH 7.4, 5 mM MgCl2, 1% Nonidet P-40, 150 mM NaCl, 1 mM phenylmethylsulfonyl fluoride). Total protein was isolated and subjected to SDS polyacrylamide gel electrophoresis and electrotransfered onto PVDF membranes (Millipore). Primary antibodies Bax, Bak, Bcl-2, XIAP, Mcl-1, Cleaved Caspase 9, Caspase 3, […], c-Myc, CD44, cyclin D1 were obtained from Cell Signaling, Met was purchased from Santa Cruz and CD133 was from Miltenyi Biotec, and secondary antibodies for anti-mouse and anti-rabbit horseradish preoxidase (HRP)-conjugation were from Chemicon International. The protein detection was performed with enhanced chemiluminescence (ECL™) method captured by a Luminescence Imaging System (LAS-4000™, Fuji Photo Film Co., Ltd).

CL141 spheroids [15] = assay: Western blotting and immunochemical staining of cancer spheroids; format: cell-based, human; details: CL141 spheroids, 0, 2.5, 5 and 10 μM, 48 hours
Protocol: as §4

CL83 spheroids [16] = assay: Tumor spheroid assay; format: cell-based, human; details: 48 hr
CL141 spheroids [17] = assay: Tumor spheroid assay; format: cell-based, human; details: 48 hr
CL97 spheroids [18] = assay: Tumor spheroid assay; format: cell-based, human; details: 48 hr
CL97-L2G cells = assay: Bulk lung tumor model, bioluminescent imaging; format: in vivo, NOD/SCID mice; details: 4 weeks, trifluoperazine 5 mg/kg/day i.p., gefitinib 150 mg/kg/day oral gavage, combination trifluoperazine 5 mg/kg/day i.p. + gefitinib 100 mg/kg/day oral
Protocol: For bulk lung tumor model, CL97-[…] cells were intravenously administered into the animals via tail vein at a concentration of 1×10^6 cells/100 μl PBS. One week post tumor injection, different treatment regimens were started. […] CL97-[…]-bearing mice (both bulk lung tumor and CSC models) were imaged weekly using the IVIS 200 system (Caliper Life Sciences). Data are expressed as fold change in total photon flux/initial total photon flux and were analyzed using Living Image 1.0 software (Caliper Life Sciences). Mice were humanely sacrificed at the end of experiments and lung tumor biopsies were obtained for further analysis.

CL97-L2G spheroids = assay: Prevention experiment, pretreated spheroids orthotopically injected into lung; format: in vivo, NOD/SCID mice; details: cells pre-treated with 5 μM overnight, versus vehicle-treated control
Protocol: (§5) . […] CL97-L2G-bearing mice (both bulk lung tumor and CSC models) were imaged weekly using the IVIS 200 system (Caliper Life Sciences). Data are expressed as fold change in total photon flux/initial total photon flux and were analyzed using Living Image 1.0 software (Caliper Life Sciences). Mice were humanely sacrificed at the end of experiments and lung tumor biopsies were obtained for further analysis.

CL97-L2G tumor samples = assay: Protein profiles of tumor biopsies (Western blot); format: in vivo, NOD/SCID mice; details: tumor biopsies of treated mice
Protocol: Total cell lysates were harvested from tumor biopsies of mice which received different treatments and their protein profiles were examined.
as §4, §5

CL141 spheroids [19] = assay: Cisplatin response of spheroids versus parental cells (IC50, viability, caspase-3 activity); format: cell-based, human
Excerpt: (§6) We selected three gefitinib-resistant NSCLC cell lines, CL141 (wild type EGFR), CL83 (wild type EGFR) and CL97 (EGFR-G719A+T790M acquired resistant mutation) to determine if trifluoperazine could sensitize these cells towards chemotherapeutic agents.

CL83 spheroids [20] = assay: as above; format: cell-based, human
Excerpt: as §6

CL97 spheroids [21] = assay: as above; format: cell-based, human
Excerpt: as §6

[22] = Homo sapiens, A549 cells, read-out: MTT assay (IC50)
[23] = A549 cells, read-out: MTT assay (IC50)

IC50 (A549 cells [1]; [22]): > 10 µM
IC50 (A549 cells [2]; Homo sapiens): 1 to 2.5 µM
Compound: CC(=O)c1ccc2c(c1)N(CCCN(C)C)c1ccccc1S2 [Acepromazine]
Reduced side population (CL141 cells [3]): No

IC50 (A549 cells [1]; [23]): 5 to 10 µM
IC50 (A549 cells [2]): 2.5 to 5 µM
Compound: CN(C)CCCN1c2ccccc2Sc2ccc(Cl)cc21 [Chlorpromazine]
Reduced side population (CL141 cells [3]): Yes

Compound: OCCN1CCN(CCCN2c3ccccc3Sc3ccc(C(F)(F)F)cc32)CC1 [Fluphenazine]
Reduced side population (CL141 cells [3]): No

Compound: CN1CCN(CCCN2c3ccccc3Sc3ccc(Cl)cc32)CC1 [Prochlorperazine]
Reduced side population (CL141 cells [3]): No

IC50 (A549 cells [1]; [22]): > 10 µM
Compound: CN(C)CCCN1c2ccccc2Sc2ccccc21 [Promazine]
Reduced side population (CL141 cells [3]): Yes

IC50 (A549 cells [1]; Homo sapiens, A549 cell line, read-out: IC50 for trifluoperazine): > 10 µM
IC50 (A549 cells [1]; [22]): > 10 µM
IC50 (H1975 cells): 15 µM
IC50 (A549 cells [2]; Homo sapiens): 1.25 to 2.5 µM
Compound: CN1CCN(CCCN2c3ccccc3Sc3ccc(C(F)(F)F)cc32)CC1 [Trifluoperazine]
IC50 (CL141 cells [4]): 8.5 µM
IC50 (CL152 cells [5]): 12 µM
IC50 (CL25 cells): 13 µM
IC50 (CL83 cells [6]): 14 µM
IC50 (CL97 cells [7]): 7.2 µM
Reduced side population (CL141 cells [3]): Yes
percentage of side population cells after treatment (CL83 cells [8]): significantly decreased
percentage of side population cells after treatment (CL97 cells [9]): significantly decreased
ALDH-positive cell population after treatment (CL141 cells [10]; CL141 cells, 5 μM, untreated 4.31%): 0.84%
percentage of ALDH+ CL141 cells (CL141 cells [10]; trifluoperazine 10 μM alone or combined with 5 μM gefitinib): moderately decreased
ALDH-positive cell population after treatment (CL152 cells [11]): 1.08%
mean colony number on soft agar (CL141 spheroids [12]; 5 μM): 32
mean colony number on soft agar (CL141 spheroids [12]; 10 μM): 8
Annexin V-positive cells (CL141 cells [13]): dose-dependent increase
Bax, Bak, cleaved PARP, caspase-3 and caspase-9 levels (CL97 spheroids [14]; CL97 cancer spheroids): increased dose-dependently
anti-apoptotic Bcl-2, XIAP and Mcl-1 levels (CL97 spheroids [14]; CL97 cancer spheroids): decreased
CD44 and CD133 expression (CL97 spheroids [14]; CL97 spheroids, 0, 2.5, 5 and 10 μM, 48 hours): dose-dependently down-regulated
Cyclin D1, c-Myc and c-Met expression (CL97 spheroids [14]; CL97 spheroids, 48 hr): decreased
CD44 and CD133 expression (CL141 spheroids [15]): dose-dependently down-regulated
size and number of spheroids (CL83 spheroids [16]): dose-dependently decreased
size and number of spheroids (CL141 spheroids [17]): dose-dependently decreased
size and number of spheroids (CL97 spheroids [18]): dose-dependently decreased
tumor burden (fold change in bioluminescence intensity) (CL97-L2G cells): significantly reduced tumor burden; also recorded: significantly lower tumor burden
in-situ tumor growth (fold change in BLI) (CL97-L2G spheroids): significantly delayed and suppressed; also recorded: delayed and significantly reduced in-situ tumor growth
Cyclin D1 expression in tumor samples (CL97-L2G tumor samples): suppressed
activated form of caspase 3 in tumor samples (CL97-L2G tumor samples): increased

IC50 (A549 cells [1]; [22]): > 10 µM
Compound: CN(C)CCCN1c2ccccc2Sc2ccc(C(F)(F)F)cc21 [Triflupromazine]
Reduced side population (CL141 cells [3]): Yes

Compound: N.N.[Cl][Pt][Cl] [cisplatin]
IC50 of spheroids compared with parental cells (CL141 spheroids [19]): significantly higher IC50
caspase-3 activity of spheroids compared with parental cells (CL141 spheroids [19]; 10 μM, 24 hours): lower caspase-3 activity
viability of spheroids compared with parental cells (CL141 spheroids [19]; 10 μM, 24 hours): higher viability
IC50 of spheroids compared with parental cells (CL83 spheroids [20]): significantly higher IC50
caspase-3 activity of spheroids compared with parental cells (CL83 spheroids [20]; 10 μM, 24 hours): lower caspase-3 activity
viability of spheroids compared with parental cells (CL83 spheroids [20]; 10 μM, 24 hours): higher viability
IC50 of spheroids compared with parental cells (CL97 spheroids [21]): significantly higher IC50
caspase-3 activity of spheroids compared with parental cells (CL97 spheroids [21]; 10 μM, 24 hours): lower caspase-3 activity
viability of spheroids compared with parental cells (CL97 spheroids [21]; 10 μM, 24 hours): higher viability

Compound: COc1cc2ncnc(Nc3ccc(F)c(Cl)c3)c2cc1OCCCN1CCOCC1 [gefitinib]
tumor burden (fold change in bioluminescence intensity) (CL97-L2G cells): not significantly different
tumor burden (fold change in bioluminescence intensity) (CL97-L2G cells; listed as genfitnib): no effects in suppressing tumor recurrence
c-Myc and β-catenin expression in tumor samples (CL97-L2G tumor samples): did not significantly influence

Compound: Pherphenazine [Perphenazine]
IC50 (A549 cells [1]; [23]): > 10 µM
IC50 (A549 cells [2]): 5 to 10 µM
Reduced side population (CL141 cells [3]): Yes

IC50 (A549 cells [1]; [23]): > 10 µM
IC50 (A549 cells [2]): 5 to 10 µM
Compound: Promethazine
Reduced side population (CL141 cells [3]): No

Compound: Thioridazine
Reduced side population (CL141 cells [3]): Yes
